Consider 14 compounds from PubChem BioAssay AID248 (DTP/NCI, 2004).

The subject of this assay is L1210 leukemia ip in BDF1 mice, survival T/C. The assay is described as follows: NCI In Vivo Anticancer Drug Screen. Data for tumor model L1210 Leukemia (intraperitoneal) in B6D2F1 (BDF1) mice. To be noted: endpoint: mean survival time, higher = longer survival. A digest of the protocol:
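Mice bearing the transplanted tumor received compound or vehicle. Survival of the treated group was divided by that of the vehicle-treated control group to give the ratio.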

The mark [1] stands for this setting: dose: 100.0 mg/kg/injection, schedule: Q04DX003 (ip), vehicle: saline.
Where [2] appears, read: dose: 100.0 mg/kg/injection, schedule: Q01DX001 (ip), vehicle: saline.
Setting [3] is: dose: 200.0 mg/kg/injection, schedule: Q01DX001 (ip), vehicle: saline.
[4] abbreviates: dose: 50.0 mg/kg/injection, schedule: Q01DX001 (ip), vehicle: saline.

Several values for one entry are separate records, joined by “and”; a condition that tells them apart may be missing. Equal values may be shown once. Inconclusive results and toxic doses are left out.

Consider `O=C(C(=O)c1ccco1)c1ccccc1`, for which the T/C reads like this: (dose: 75.0 mg/kg/injection, schedule: Q01DX001 (ip), vehicle: carboxymethylcellulose (CMC)) 100 % of control; (dose: 150.0 mg/kg/injection, schedule: Q01DX001 (ip), vehicle: carboxymethylcellulose (CMC)) 102 % of control; (dose: 300.0 mg/kg/injection, schedule: Q01DX001 (ip), vehicle: carboxymethylcellulose (CMC)) 97 % of control.

For `NCCN1C(=O)C2C3CCC(O3)C2C1=O` (stereo not given), the T/C reads like this: (dose: 100.0 mg/kg/injection, schedule: Q01DX001 (ip), vehicle: carboxymethylcellulose (CMC)) 97 % of control and 107 % of control; (dose: 100.0 mg/kg/injection, schedule: Q04DX002 (ip), vehicle: carboxymethylcellulose (CMC)) 97 % of control and 88 % of control; (dose: 100.0 mg/kg/injection, schedule: Q04DX003 (ip), vehicle: carboxymethylcellulose (CMC)) 101 % of control and 112 % of control; (dose: 200.0 mg/kg/injection, schedule: Q01DX001 (ip), vehicle: carboxymethylcellulose (CMC)) 97 % of control and 104 % of control; (dose: 200.0 mg/kg/injection, schedule: Q04DX002 (ip), vehicle: carboxymethylcellulose (CMC)) 93 % of control and 94 % of control; (dose: 200.0 mg/kg/injection, schedule: Q04DX003 (ip), vehicle: carboxymethylcellulose (CMC)) 104 % of control and 105 % of control. Further, the T/C is, setting by setting: (dose: 400.0 mg/kg/injection, schedule: Q01DX001 (ip), vehicle: carboxymethylcellulose (CMC)) 96 % of control and 103 % of control; (dose: 400.0 mg/kg/injection, schedule: Q04DX002 (ip), vehicle: carboxymethylcellulose (CMC)) 108 % of control and 88 % of control; (dose: 400.0 mg/kg/injection, schedule: Q04DX003 (ip), vehicle: carboxymethylcellulose (CMC)) 96 % of control and 100 % of control.

Regarding `COC(=O)C1C(O)CN2CCCC12` (stereo not given), the T/C under setting [1] is 93 % of control; the T/C (dose: 200.0 mg/kg/injection, schedule: Q04DX003 (ip), vehicle: saline) is 93 % of control; the T/C (dose: 400.0 mg/kg/injection, schedule: Q04DX003 (ip), vehicle: saline) was 93 % of control.

Take `CCN1CC=CCC1`: the T/C is 93 % of control (dose: 25.0 mg/kg/injection, schedule: Q04DX003 (ip), vehicle: saline); 100 % of control (dose: 50.0 mg/kg/injection, schedule: Q01DX009 (ip), vehicle: saline); 98 % of control (dose: 50.0 mg/kg/injection, schedule: Q04DX003 (ip), vehicle: saline); 100 % of control (dose: 100.0 mg/kg/injection, schedule: Q01DX009 (ip), vehicle: saline); 103 % of control and 91 % of control under setting [1].

In the case of `C(CC1CO1)CC1OC1CC1CO1` (stereo not given), the T/C (dose: 15.0 mg/kg/injection, schedule: Q01DX009 (ip), vehicle: Klucel (hydroxypropylcellulose) (HPC)) was 102 % of control; the T/C (dose: 18.0 mg/kg/injection, schedule: Q04DX003 (ip), vehicle: saline with Tween-80) is 110 % of control; the T/C (dose: 26.0 mg/kg/injection, schedule: Q04DX003 (ip), vehicle: saline with Tween-80) is 110 % of control; the T/C (dose: 30.0 mg/kg/injection, schedule: Q01DX009 (ip), vehicle: Klucel (hydroxypropylcellulose) (HPC)) is 105 % of control; the T/C (dose: 39.0 mg/kg/injection, schedule: Q04DX003 (ip), vehicle: saline with Tween-80) is 106 % of control; the T/C (dose: 40.0 mg/kg/injection, schedule: Q04DX003 (ip), vehicle: saline) is 108 % of control. Moreover, the T/C was 108 % of control (dose: 45.0 mg/kg/injection, schedule: Q01DX009 (ip), vehicle: Klucel (hydroxypropylcellulose) (HPC)); 108 % of control (dose: 59.0 mg/kg/injection, schedule: Q04DX003 (ip), vehicle: saline with Tween-80); 113 % of control (dose: 60.0 mg/kg/injection, schedule: Q01DX009 (ip), vehicle: Klucel (hydroxypropylcellulose) (HPC)); 118 % of control (dose: 80.0 mg/kg/injection, schedule: Q04DX003 (ip), vehicle: saline); 117 % of control (dose: 89.0 mg/kg/injection, schedule: Q04DX003 (ip), vehicle: saline with Tween-80); 119 % of control (dose: 120.0 mg/kg/injection, schedule: Q01DX009 (ip), vehicle: other). In addition, the T/C runs as follows: (dose: 133.0 mg/kg/injection, schedule: Q01DX009 (ip), vehicle: saline with Tween-80) 97 % of control; (dose: 133.0 mg/kg/injection, schedule: Q04DX003 (ip), vehicle: saline with Tween-80) 115 % of control; (dose: 160.0 mg/kg/injection, schedule: Q04DX003 (ip), vehicle: saline) 154 % of control.

Turning to `CC(O)CC1CC(=O)CCC1=O` (stereo not given), the T/C by setting is: (dose: 100.0 mg/kg/injection, schedule: Q01DX009 (ip), vehicle: acetone) 96 % of control; (dose: 200.0 mg/kg/injection, schedule: Q01DX009 (ip), vehicle: acetone) 101 % of control; (dose: 400.0 mg/kg/injection, schedule: Q01DX009 (ip), vehicle: acetone) 102 % of control.

On to `Cc1cc(N)nc(=O)n1C1OC(CO)C(O)C1O` (stereo not given), for which the T/C was 96 % of control under setting [2]; 102 % of control under setting [3]; 101 % of control (dose: 400.0 mg/kg/injection, schedule: Q01DX001 (ip), vehicle: saline).

In the case of `CN(CCO)CC1COc2ccccc2O1` (stereo not given), the T/C is, setting by setting: under setting [4], 97 % of control; under setting [2], 105 % of control; under setting [3], 88 % of control.

On to `CCN(CC)Cc1cc(O)c(CN(CC)CC)cc1O`, for which the T/C (dose: 25.0 mg/kg/injection, schedule: Q01DX001 (ip), vehicle: saline with Tween-80) is 93 % of control; the T/C (dose: 50.0 mg/kg/injection, schedule: Q01DX001 (ip), vehicle: saline with Tween-80) was 103 % of control; the T/C (dose: 100.0 mg/kg/injection, schedule: Q01DX001 (ip), vehicle: saline with Tween-80) is 96 % of control.

As for `O=C(O)C1C(C(=O)O)C2(c3ccccc3)c3ccccc3C12` (stereo not given), the T/C was 92 % of control (dose: 9.38 mg/kg/injection, schedule: Q01DX001 (ip), vehicle: other); 92 % of control (dose: 18.75 mg/kg/injection, schedule: Q01DX001 (ip), vehicle: other); 102 % of control (dose: 37.5 mg/kg/injection, schedule: Q01DX001 (ip), vehicle: other).

Regarding `O=C(C=C(C(F)(F)F)C(F)(F)F)c1c2ccccc2cc2ccccc12`, the T/C is 87 % of control (dose: 0.18 mg/kg/injection, schedule: Q01DX009 (ip), vehicle: DMSO); 99 % of control (dose: 0.37 mg/kg/injection, schedule: Q01DX009 (ip), vehicle: DMSO); 97 % of control (dose: 0.75 mg/kg/injection, schedule: Q01DX009 (ip), vehicle: DMSO); 93 % of control (dose: 1.5 mg/kg/injection, schedule: Q01DX009 (ip), vehicle: DMSO); 93 % of control and 88 % of control (dose: 3.0 mg/kg/injection, schedule: Q01DX009 (ip), vehicle: DMSO); 100 % of control (dose: 3.0 mg/kg/injection, schedule: Q04DX003 (ip), vehicle: DMSO). In addition, the T/C by setting is: (dose: 6.0 mg/kg/injection, schedule: Q04DX003 (ip), vehicle: DMSO) 98 % of control; (dose: 12.0 mg/kg/injection, schedule: Q04DX003 (ip), vehicle: DMSO) 97 % of control; (dose: 12.5 mg/kg/injection, schedule: Q04DX003 (ip), vehicle: DMSO) 93 % of control.

With `NCC(=O)c1cc2ccccc2[n+]([O-])c1`, the T/C is, setting by setting: (dose: 100.0 mg/kg/injection, schedule: Q01DX009 (ip), vehicle: Klucel (hydroxypropylcellulose) (HPC)) 87 % of control; (dose: 100.0 mg/kg/injection, schedule: Q04DX003 (ip), vehicle: Klucel (hydroxypropylcellulose) (HPC)) 92 % of control; (dose: 200.0 mg/kg/injection, schedule: Q01DX009 (ip), vehicle: Klucel (hydroxypropylcellulose) (HPC)) 93 % of control; (dose: 200.0 mg/kg/injection, schedule: Q04DX003 (ip), vehicle: Klucel (hydroxypropylcellulose) (HPC)) 97 % of control; (dose: 400.0 mg/kg/injection, schedule: Q01DX009 (ip), vehicle: Klucel (hydroxypropylcellulose) (HPC)) 93 % of control; (dose: 400.0 mg/kg/injection, schedule: Q04DX003 (ip), vehicle: Klucel (hydroxypropylcellulose) (HPC)) 97 % of control.

Consider `Cc1ccc(Oc2ccc(-c3cc(=O)c4cc(S(=O)(=O)F)ccc4[nH]3)cc2)cc1`, for which the T/C reads like this: (dose: 100.0 mg/kg/injection, schedule: Q04DX003 (ip), vehicle: gum acacia) 96 % of control; (dose: 200.0 mg/kg/injection, schedule: Q04DX003 (ip), vehicle: gum acacia) 88 % of control; (dose: 400.0 mg/kg/injection, schedule: Q04DX003 (ip), vehicle: gum acacia) 86 % of control.

Take `CC1(C)N=C(N)N=C(N)N1c1cccc(OCCCOc2cccc(N)c2)c1`: the T/C is 97 % of control (dose: 25.0 mg/kg/injection, schedule: Q01DX001 (ip), vehicle: saline) and 98 % of control under setting [4].
